Experimental data taken from patent US20240138406A1, “ANTIMICROBIAL PEPTIDE SCYAMPCIN44-63 AND APPLICATION THEREOF” (Xiamen University, priority 2021, published 2024).
No end group written: not given here.

Assays:
[1] = system: Human embryonic kidney 293T (HEK-293T) cells; type: cell-based
Experimental: (§1) IV. Cytotoxicity of the […]44-63 is measured and evaluated by using 3-(4,5-dimethylthiazol-2-yl)-5-(3-carboxymethoxyphenyl)-2-(4-sulfophenyl)-2H-tetrazolium (MTS) 1. Human embryonic kidney 293T (HEK-293T) cells and epithelioma papulosum […] (EPC) cells are selected to assess the cytotoxicity of the […]44-63. […] HEK-293T cells are incubated in a cell incubator with 5% CO2 at 37° C., and EPC cells are incubated in a cell incubator with 5% CO2 at 28° C. (2) 50 μL of medium is carefully sucked out, fresh media with or without different concentrations of the […]44-63 are respectively added to a corresponding well, put in a corresponding cell condition, and incubated for another 24 hours while leaving to stand. (3) 20 μL of an MTS-Phenazinemethosulfate (PMS) mixed solution is added and incubated for 4 hours, absorbance of each well is measured at OD492 nm in a microplate reader, and cell viabilities are calculated.

[2] = system: epithelioma papulosum cyprini (EPC) cells; type: cell-based
Experimental: as §1

[3] = system: Staphylococcus aureus CGMCC 1.2465; settings: CGMCC 1.2465, 24 h
[4] = system: Enterococcus faecium CGMCC 1.131; settings: CGMCC 1.131, 24 h
[5] = system: Listeria monocytogenes CGMCC 1.10753; settings: CGMCC 1.10753, 24 h
[6] = system: Bacillus cereus CGMCC 1.3760; settings: CGMCC 1.3760, 24 h
[7] = system: Staphylococcus aureus QZ19131; settings: QZ19131, 24 h
[8] = system: Enterococcus faecium QZ18080; settings: QZ18080, 24 h
[9] = system: Enterococcus faecalis QZ19138; settings: QZ19138, 24 h
[10] = system: Shigella flexneri CGMCC 1.1868; settings: 24 h
[11] = system: Acinetobacter baumannii CGMCC 1.6769; settings: CGMCC 1.6769, 24 h
[12] = system: Escherichia coli CGMCC 1.2389; settings: CGMCC 1.2389, 24 h
[13] = system: Pseudomonas aeruginosa CGMCC 1.1785; settings: CGMCC 1.1785, 24 h
[14] = system: Acinetobacter baumannii QZ20141; settings: QZ20141, 24 h
Escherichia coli QZ18109 = settings: QZ18109, 24 h
[15] = system: Pseudomonas aeruginosa QZ18071; settings: QZ18071, 24 h
[16] = system: Klebsiella pneumoniae QZ18106; settings: QZ18106, 24 h
[17] = system: Cryptococcus neoformans CGMCC 2.1563; settings: CGMCC 2.1563, 24 h
[18] = system: Candida albicans CGMCC 2.2411; settings: CGMCC 2.2411, 24 h
[19] = system: Fusarium graminearum CGMCC 3.4521; settings: Filamentous fungi, incubated 24 hours
[20] = system: Fusarium solani CGMCC 3.584; settings: 24 h

GKKKKRNMMKTKEPGIIFFF-NH2 [Scyampcin44-63]
Cytotoxicity (cell viability, MTS) [1]: no cytotoxicity | Cytotoxicity (cell viability, MTS) [2]: no cytotoxicity | MBC [3]: 3 to 6 µM | MBC [4]: 0 to 3 µM | MBC [5]: 0 to 3 µM | MBC [6]: 3 to 6 µM | MBC [7]: 3 to 6 µM | MBC [8]: 0 to 3 µM | MBC [9]: 3 to 6 µM | MBC [10]: 0 to 3 µM | MBC [11]: 0 to 3 µM | MBC [12]: 0 to 3 µM | MBC [13]: 6 to 12 µM | MBC [14]: 3 to 6 µM | MBC (Escherichia coli QZ18109): 0 to 3 µM | MBC [15]: 6 to 12 µM | MBC [16]: 3 to 6 µM | MBC [17]: 0 to 3 µM | MBC [18]: 3 to 6 µM | MBC [19]: 3 to 6 µM | MBC [20]: 3 to 6 µM
